Key:
PHD1 (EGLN2) = PHD1 (EGLN2) (Homo sapiens (Human), UniProt Q96KS0); assay: HIF-PH assay (14CO2 capture), PHD1 enzyme inhibition; type: biochemical; conditions: for IC50: individual measurement, read-out: IC50 (μM) PHD1
PHD2 (EGLN1) = PHD2 (EGLN1) (Homo sapiens (Human), UniProt Q9GZT9); assay: HIF-PH assay (14CO2 capture), PHD2 enzyme inhibition; type: biochemical; conditions: Table 1; individual measurement; read-out: IC50 (μM) PHD2
[1] = Table 1, ratio of the IC50 of the compound for each enzyme
[2] = Table 2 comparative data, IC50 PHD2/IC50 PHD1

PHD2 (EGLN1), sequence (Q9GZT9 whole entry): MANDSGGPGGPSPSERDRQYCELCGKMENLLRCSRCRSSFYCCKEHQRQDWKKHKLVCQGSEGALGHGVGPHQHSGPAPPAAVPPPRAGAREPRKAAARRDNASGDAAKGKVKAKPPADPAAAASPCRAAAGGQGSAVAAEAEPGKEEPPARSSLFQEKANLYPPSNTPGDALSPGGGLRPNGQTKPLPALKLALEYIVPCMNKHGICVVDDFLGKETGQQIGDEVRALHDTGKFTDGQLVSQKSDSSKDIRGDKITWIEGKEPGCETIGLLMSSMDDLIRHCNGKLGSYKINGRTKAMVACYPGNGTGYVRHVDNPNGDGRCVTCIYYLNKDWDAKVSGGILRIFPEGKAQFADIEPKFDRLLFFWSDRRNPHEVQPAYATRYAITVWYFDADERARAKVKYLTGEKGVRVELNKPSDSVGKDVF
PHD1 (EGLN2), sequence (Q96KS0 whole entry): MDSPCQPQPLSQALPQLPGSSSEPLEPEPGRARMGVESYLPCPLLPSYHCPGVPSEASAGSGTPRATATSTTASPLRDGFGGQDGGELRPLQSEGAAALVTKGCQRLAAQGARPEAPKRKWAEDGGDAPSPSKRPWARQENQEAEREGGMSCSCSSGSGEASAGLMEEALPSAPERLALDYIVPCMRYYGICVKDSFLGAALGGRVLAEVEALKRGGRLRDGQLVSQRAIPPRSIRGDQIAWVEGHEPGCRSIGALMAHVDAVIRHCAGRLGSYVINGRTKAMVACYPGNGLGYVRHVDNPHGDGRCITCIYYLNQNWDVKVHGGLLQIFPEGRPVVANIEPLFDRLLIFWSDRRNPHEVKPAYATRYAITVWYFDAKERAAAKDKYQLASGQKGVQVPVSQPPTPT

IC50 (PHD1 (EGLN2); Table 1) [µM]	PHD2/PHD1 (PHD1 (EGLN2); [1])	PHD2/PHD1 (PHD1 (EGLN2); [2])	IC50 (PHD2 (EGLN1)) [µM]	SMILES
2.31	10	10	23.3	O=C(O)CCNC(=O)c1ncc2cc(Oc3cccnc3)ccc2c1O [Compound 24, 3-{[4-Hydroxy-7-(pyridin-3-yloxy)-isoquinoline-3-carbonyl]-amino}-propionic acid]
4.57	10	–	44.6	O=C(O)CCNC(=O)c1ncc2cc(Oc3ccccn3)ccc2c1O [Compound 25, 3-{[4-Hydroxy-7-(pyridin-2-yloxy)-isoquinoline-3-carbonyl]-amino}-propionic acid]
0.92	11	11	10.3	O=C(O)CCNC(=O)c1ncc2cc(Oc3ccccc3)ccc2c1O [Compound 1, 3-[(4-Hydroxy-7-phenoxy-isoquinoline-3-carbonyl)-amino]propionic acid]
23.1	9	–	200	O=C(O)CCCCNC(=O)c1ncc2cc(Oc3c(F)cccc3F)ccc2c1O [Compound 100, 5-{[7-(2,6-Difluoro-phenoxy)-4-hydroxy-isoquinoline-3-carbonyl]-amino}-pentanoic acid]
0.93	16	–	15.1	CC(C)(CNC(=O)c1nc(C#N)c2cc(Oc3c(F)cccc3F)ccc2c1O)C(=O)O [Compound 22, 3-{[1-Cyano-7-(2,6-difluoro-phenoxy)-4-hydroxy-isoquinoline-3-carbonyl]-amino}-2,2-dimethyl-propionic acid]
3.34	9	–	29.2	O=C(O)CCNC(=O)c1ncc2cc(NC(=O)Nc3ccccc3)ccc2c1O [Compound 116, 3-{[4-Hydroxy-7-(3-phenyl-ureido)-isoquinoline-3-carbonyl]-amino}-propionic acid]
33.9	6	–	> 200	N[C@@H](CNC(=O)c1ncc2cc(Oc3ccccc3)ccc2c1O)C(=O)O [Compound 9, 2-(S)-Amino-3-[(4-hydroxy-7-phenoxy-isoquinoline-3-carbonyl)-amino]-propionic acid]
4.12	14	–	56.4	O=C(O)CCCNC(=O)c1ncc2cc(NC(=O)Nc3ccc(F)cc3)ccc2c1O [Compound 142, 4-([7-[3-(4-Fluoro-phenyl)-ureido]-4-hydroxy-isoquinoline-3-carbonyl]-amino)-butyric acid]
18.5	5	–	87	O=C(O)CCCCNC(=O)c1ncc2cc(-c3ccc(F)cc3)ccc2c1O [Compound 149, 5-{[7-(4-Fluoro-phenyl)-4-hydroxy-isoquinoline-3-carbonyl]-amino}-pentanoic acid]
2.3	6	–	13.4	COc1ccc(Oc2ccc3c(O)c(C(=O)NCCCCC(=O)O)ncc3c2)cc1 [Compound 105, 5-{[4-Hydroxy-7-(4-methoxy-phenoxy)-isoquinoline-3-carbonyl]-amino}-pentanoic acid]
34	6	–	200	COc1ccc(CNc2ccc3c(O)c(C(=O)NCC(C)(C)C(=O)O)ncc3c2)cc1 [Compound 126, 3-{[4-Hydroxy-7-(4-methoxy-benzylamino)-isoquinoline-3-carbonyl]-amino}-2,2-dimethyl-propionic acid]
1.1	11	–	12.3	CCC(C)(CNC(=O)c1nc(C#N)c2cc(Oc3ccccc3)ccc2c1O)C(=O)O (centres unmarked) [Compound 58, 2-{[(1-Cyano-4-hydroxy-7-phenoxy-isoquinoline-3-carbonyl)-amino]-methyl}-2-methyl-butyric acid]
0.84	10	–	8.18	CC(C)(CNC(=O)c1nc(C#N)c2cc(Sc3ccccc3)ccc2c1O)C(=O)O [Compound 121, 3-[(1-Cyano-4-hydroxy-7-phenylsulfanyl-isoquinoline-3-carbonyl)-amino]-2,2-dimethyl-propionic acid]
2.15	6	–	13.4	O=C(O)CCCNC(=O)c1ncc2cc(NC(=O)NCc3ccccc3)ccc2c1O [Compound 134, 4-{[7-(3-Benzyl-ureido)-4-hydroxy-isoquinoline-3-carbonyl]-amino}-butyric acid]

Further lines, the compound ahead of its results:

SMILES	IC50 (PHD1 (EGLN2); Table 1) [µM]	PHD2/PHD1 (PHD1 (EGLN2); [1])	PHD2/PHD1 (PHD1 (EGLN2); [2])	IC50 (PHD2 (EGLN1)) [µM]
CC(C)(C)OC(=O)N[C@@H](CNC(=O)c1nc(C#N)c2cc(Oc3ccccc3)ccc2c1O)C(=O)O [Compound 85, 2-(S)-tert-Butoxycarbonylamino-3-[(1-cyano-4-hydroxy-7-phenoxy-isoquinoline-3-carbonyl)-amino]-propionic acid]	19.1	6	–	112
N#Cc1nc(C(=O)NCC2(C(=O)O)CCC2)c(O)c2ccc(Oc3ccccc3)cc12 [Compound 14, 1-{[(1-Cyano-4-hydroxy-7-phenoxy-isoquinoline-3-carbonyl)-amino]-methyl}-cyclobutanecarboxylic acid]	0.31	11	–	3.52
N#Cc1nc(C(=O)NCC2(C(=O)O)CC[S+]([O-])CC2)c(O)c2ccc(Oc3ccccc3)cc12 (centres unmarked) [Compound 30, 4-{[(1-Cyano-4-hydroxy-7-phenoxy-isoquinoline-3-carbonyl)-amino]-methyl}-1-oxo-hexahydro-1λ^4-thiopyran-4-carboxylic acid]	25.1	8	–	200
N#Cc1nc(C(=O)NCCC(=O)O)c(O)c2ccc(-c3ccccc3)cc12 [Compound 137, 3-[(1-Cyano-4-hydroxy-7-phenyl-isoquinoline-3-carbonyl)-amino]-propionic acid]	0.61	6	–	3.67
N#Cc1nc(C(=O)NCC2(C(=O)O)CCC2)c(O)c2ccc(Oc3cccnc3)cc12 [Compound 28, 1-({[1-Cyano-4-hydroxy-7-(pyridin-3-yloxy)-isoquinoline-3-carbonyl]-amino}-methyl)-cyclobutanecarboxylic acid]	1.3	5	–	7.15
N#Cc1nc(C(=O)NCC2(C(=O)O)CC2)c(O)c2ccc(Oc3ccccc3)cc12 [Compound 12, 1-{[(1-Cyano-4-hydroxy-7-phenoxy-isoquinoline-3-carbonyl)-amino]-methyl}-cyclopropanecarboxylic acid]	0.17	9	–	1.62
N#Cc1nc(C(=O)NC[C@@H](O)CC(=O)O)c(O)c2ccc(Oc3ccccc3)cc12 [Compound 35, (S)-4-(1-Cyano-4-hydroxy-7-phenoxyisoquinoline-3-carboxamido)-3-hydroxybutanoic acid]	0.23	12	–	2.83
N#Cc1nc(C(=O)NCC[C@H](O)C(=O)O)c(O)c2ccc(Oc3ccccc3)cc12 [Compound 83, 4-[(1-Cyano-4-hydroxy-7-phenoxy-isoquinoline-3-carbonyl)-amino]-2-(S)-hydroxy-butyric acid]	0.24	12	–	2.75
Cc1cccc(C)c1Oc1ccc2c(C#N)nc(C(=O)NCCC(=O)O)c(O)c2c1 [Compound 109, 3{-[1-Cyano-6-(2,6-dimethyl-phenoxy)-4-hydroxy-isoquinoline-3-carbonyl]-amino}-propionic acid]	6.4	5	–	30.4
O=C(O)CCCNC(=O)c1ncc2cc(NC(=O)NC3CCCCC3)ccc2c1O [Compound 131, 4-{[7-(3-Cyclohexyl-ureido)-4-hydroxy-isoquinoline-3-carbonyl]-amino}-butyric acid]	3.16	25	–	77.6
C[C@H](NC(=O)c1nc(C#N)c2cc(Oc3ccccc3)ccc2c1O)[C@H](C)C(=O)O [Compound 71, (2S,3S)-3-[(1-Cyano-4-hydroxy-7-phenoxy-isoquinoline-3-carbonyl)-amino]-2-methyl-butyric acid]	2.77	39	–	107
N#Cc1nc(C(=O)NCC[C@@H](NC(N)=O)C(=O)O)c(O)c2ccc(Oc3ccccc3)cc12 [Compound 55, (R)-4-(1-Cyano-4-hydroxy-7-phenoxyisoquinoline-3-carboxamido)-2-ureidobutanoic acid]	1.1	8	–	9.1
N#Cc1nc(C(=O)NCC(C(=O)O)c2ccc(F)cc2)c(O)c2ccc(Oc3ccccc3)cc12 (centres unmarked) [Compound 181, 3-[(1-Cyano-4-hydroxy-7-phenoxy-isoquinoline-3-carbonyl)-amino]-2-(4-fluoro-phenyl)-propionic acid]	1.45	7	–	9.45
N#Cc1nc(C(=O)NCC2(C(=O)O)CCC2)c(O)c2ccc(OC3CCCCC3)cc12 [Compound 159, 1-{[(1-Cyano-7-cyclohexyloxy-4-hydroxy-isoquinoline-3-carbonyl)-amino]-methyl}-cyclobutanecarboxylic acid]	0.91	9	–	7.9
N#Cc1nc(C(=O)NCC2(C(=O)O)CCS(=O)(=O)CC2)c(O)c2ccc(Oc3ccccc3)cc12 [Compound 29, 4-{[(1-Cyano-4-hydroxy-7-phenoxy-isoquinoline-3-carbonyl)-amino]-methyl}-1,1-dioxo-hexahydro-1λ^6-thiopyran-4-carboxylic acid]	3.76	9.9	–	37.3
N#Cc1nc(C(=O)N[C@H](Cc2ccccc2)[C@H](O)C(=O)O)c(O)c2ccc(Oc3ccccc3)cc12 [Compound 74, (2S,3R)-3-(1-Cyano-4-hydroxy-7-phenoxyisoquinoline-3-carboxamido)-2-hydroxy-4-phenylbutanoic acid]	1.55	5	–	7.64
N#Cc1nc(C(=O)NCC(C(=O)O)C2CC2)c(O)c2ccc(Oc3ccc(F)cc3)cc12 (centres unmarked) [Compound 179, 3{-[1-Cyano-7-(4-fluoro-phenoxy)-4-hydroxy-isoquinoline-3-carbonyl]-amino}-2-cyclopropyl-propionic acid]	0.95	9	–	8.54
